The record followed here is ChEMBL document CHEMBL5042533, “Structural Optimization and Structure-Activity Relationship Studies of 6,6-Dimethyl-4-(phenylamino)-6H-pyrimido[5,4-b][1,4]oxazin-7(8H)-one Derivatives as A New Class of Potent Inhibitors of Pan-Trk and Their Drug-Resistant Mutants” (J Med Chem, 2022).

The term half-life denotes the time needed for the level to fall by half in the phase considered. Read a high half-life as slow decline. A word on the IC50: it is the point on the concentration scale where inhibition reaches its midpoint. A word on the AUC(0-t): it is exposure summed from dosing to a finite time, without extrapolation to infinity. Broadly, the clearance is the volume of plasma or blood freed of the substance per unit of time. A higher clearance goes with a high capacity for elimination. In general, CL/F refers to clearance divided by bioavailability, as obtained after extravascular dosing. By Ki is commonly meant the dissociation constant of the complex between target and ligand, obtained from inhibition or displacement.

Activity calls are given as the source filed them.

Data set [1] is described as follows: Half life in Sprague-Dawley rat at 10 mg/kg, po measured up to 24 hrs by HPLC method. In kind it is ADME, organism-based. As to conditions: in vivo.
Data set [2] has as its system BaF3. The data set is described as follows: cells. As to conditions: Mus musculus, BaF3, 72 h.
Description: Cytotoxicity against mouse BaF3 cells expressing TEL fused TrkC G696C assessed as inhibition of cell growth incubated for 3 days by CCK-8 assay
Data set [3] relates to BaF3. The data set is described as follows: Cytotoxicity against mouse BaF3 cells expressing LMNA fused TrkA F589L mutant assessed as inhibition of cell growth incubated for 3 days by CCK-8 assay. In kind it is functional, cell-based. As to conditions: BaF3, 72 h. A general note: Tetrazolium assays rely on reduction of a dye to a coloured formazan, in cell work by metabolically active cells.

Data set [4] relates to BaF3. The data set is described as follows: In vivo inhibition of Trk signalling in NOD-SCID mouse allografted with mouse BaF3 cells expressing TEL fused TrkC G623R mutant assessed as reduction in p-Erk level at 5 to 20 mg/kg, iv qd measured after 10 days by IHC staining based analysis. The data set is classed as functional, organism-based. As to conditions: dose 5-20 mg/kg, time 10.0 day.

In data set [5] the test system is BaF3. The data set is described as follows: Inhibition of PLCgamma1 phosphorylation in mouse BaF3 cells expressing CD74 fused TrkA incubated for 6 hrs by Western blot analysis. The data set is classed as cell-based. As to conditions: dose 3-300 nM.
Data set [6] concerns BaF3. In words: Inhibition of AKT phosphorylation in mouse BaF3 cells expressing TEL fused TrkC G623R mutant incubated for 6 hrs by Western blot analysis. The data set is classed as cell-based. As to conditions: dose 3-300 nM.
In data set [7] the test system is BaF3. In words: In vivo inhibition of Trk signalling in NOD-SCID mouse allografted with mouse BaF3 cells expressing TEL fused TrkC G623R mutant assessed as reduction in p-Akt level at 5 to 20 mg/kg, iv qd measured after 10 days by IHC staining based analysis. In kind it is functional, organism-based. As to conditions: dose 5-20 mg/kg, time 10.0 day.
For data set [8], the system named is BaF3. The data set is described as follows: cells. As to conditions: Mus musculus.
Description: Cytotoxicity against mouse BaF3 cells harboring TEL fused TrkC G613R mutant assessed as inhibition of cell growth by MTT assay
Data set [9] concerns BaF3. In words: Antitumour activity against mouse BaF3 cells expressing TEL fused TrkA allografted in NOD-SCID mouse assessed as reduction in tumor volume at 20 mg/kg, iv and measured every 2 or 3 days for 10 days. As to conditions: time 10.0 day. In kind it is functional, organism-based.
Data set [10] has as its system BaF3. In words: Inhibition of TrkA phosphorylation in mouse BaF3 cells expressing CD74 fused TrkA incubated for 6 hrs by Western blot analysis. In kind it is cell-based. As to conditions: dose 3-300 nM. On the technique in general: Immunoblotting shows a protein as a band on a membrane.
Data set [11] can be described thus: AUC(0 to t) in Sprague-Dawley rat at 5 mg/kg, iv measured up to 24 hrs by HPLC method. In kind it is ADME, organism-based. Details: route intravenous, dose 5 mg/kg, time <=24. As to conditions: in vivo.
In data set [12] the test system is BaF3. The data set is described as follows: Antitumour activity against larotrectinib-resistant mouse BaF3 cells expressing TEL fused TrkC G623R mutant allografted in NOD-SCID mouse assessed as reduction in tumor growth at 10 mg/kg/day, iv qd measured every 2 or 3 days for 10 days. The data set is classed as functional, organism-based. As to conditions: time 10.0 day.

Data set [13] is described as follows: Toxicity in NOD-SCID mouse allografted with mouse BaF3 cells expressing TEL fused TrkA assessed as body weight loss at 5 to 20 mg/kg, iv measured every 2 or 3 days for 10 days. In kind it is organism-based. As to conditions: in vivo, 240 h, dose 5-20 mg/kg, time 10 day.
A short description of data set [14]: Clearance in Sprague-Dawley rat at 5 mg/kg, iv measured up to 24 hrs by HPLC method. As to conditions: in vivo. The data set is classed as ADME, organism-based.
A short description of data set [15]: Toxicity in NOD-SCID mouse assessed as histological changes in heart at 5 to 20 mg/kg, iv measured after 10 days by H and E staining based microscopic analysis. The data set is classed as organism-based. As to conditions: in vivo, 240 h, dose 5-20 mg/kg, time 10 day.
Data set [16] is described as follows: Toxicity in NOD-SCID mouse assessed as histological changes in lung at 5 to 20 mg/kg, iv measured after 10 days by H and E staining based microscopic analysis. The data set is classed as organism-based. As to conditions: in vivo, 240 h, dose 5-20 mg/kg, time 10 day.
Data set [17] can be described thus: Toxicity in NOD-SCID mouse assessed as histological changes in liver at 5 to 20 mg/kg, iv measured after 10 days by H and E staining based microscopic analysis. The data set is classed as organism-based. As to conditions: in vivo, 240 h, dose 5-20 mg/kg, time 10 day.
The nature of data set [18]: Clearance in Sprague-Dawley rat at 10 mg/kg, po measured up to 24 hrs by HPLC method. As to conditions: in vivo. In kind it is ADME, organism-based.
The test system of data set [19] is BaF3. In words: cells. As to conditions: Mus musculus, BaF3, 72 h. This is another data set of the same source.
The test system of data set [20] is BaF3. The data set is described as follows: Downregulation of TrkC protein expression in mouse BaF3 cells expressing TEL fused TrkC G623R mutant incubated for 6 hrs by Western blot analysis. The data set is classed as functional, cell-based.
Data set [21] relates to BaF3. In words: Induction of cell cycle arrest in mouse BaF3 cells expressing TEL fused TrkC G623R mutant assessed as accumulation of cells in G0/G1 phase incubated for 24 hrs by PI /RNase staining based flow cytometry analysis. The data set is classed as functional. (A flow cytometer gives signals particle by particle.)
A short description of the next data set: in vitro. As to conditions: mouse, BaF3 cells.
Data set [22] addresses Epithelial discoidin domain-containing receptor 1 (Homo sapiens, UniProt Q08345). The data set is described as follows: Inhibition of human DDR1 in presence of ATP by radiometric assay.
Data set [23] in a line: Binding affinity to TrkA G667S mutant (unknown origin) assessed as inhibition constant by radiometric assay. Details: species or system Homo sapiens.

Sequence of Epithelial discoidin domain-containing receptor 1 (Q08345 whole entry, the tested form may be a part): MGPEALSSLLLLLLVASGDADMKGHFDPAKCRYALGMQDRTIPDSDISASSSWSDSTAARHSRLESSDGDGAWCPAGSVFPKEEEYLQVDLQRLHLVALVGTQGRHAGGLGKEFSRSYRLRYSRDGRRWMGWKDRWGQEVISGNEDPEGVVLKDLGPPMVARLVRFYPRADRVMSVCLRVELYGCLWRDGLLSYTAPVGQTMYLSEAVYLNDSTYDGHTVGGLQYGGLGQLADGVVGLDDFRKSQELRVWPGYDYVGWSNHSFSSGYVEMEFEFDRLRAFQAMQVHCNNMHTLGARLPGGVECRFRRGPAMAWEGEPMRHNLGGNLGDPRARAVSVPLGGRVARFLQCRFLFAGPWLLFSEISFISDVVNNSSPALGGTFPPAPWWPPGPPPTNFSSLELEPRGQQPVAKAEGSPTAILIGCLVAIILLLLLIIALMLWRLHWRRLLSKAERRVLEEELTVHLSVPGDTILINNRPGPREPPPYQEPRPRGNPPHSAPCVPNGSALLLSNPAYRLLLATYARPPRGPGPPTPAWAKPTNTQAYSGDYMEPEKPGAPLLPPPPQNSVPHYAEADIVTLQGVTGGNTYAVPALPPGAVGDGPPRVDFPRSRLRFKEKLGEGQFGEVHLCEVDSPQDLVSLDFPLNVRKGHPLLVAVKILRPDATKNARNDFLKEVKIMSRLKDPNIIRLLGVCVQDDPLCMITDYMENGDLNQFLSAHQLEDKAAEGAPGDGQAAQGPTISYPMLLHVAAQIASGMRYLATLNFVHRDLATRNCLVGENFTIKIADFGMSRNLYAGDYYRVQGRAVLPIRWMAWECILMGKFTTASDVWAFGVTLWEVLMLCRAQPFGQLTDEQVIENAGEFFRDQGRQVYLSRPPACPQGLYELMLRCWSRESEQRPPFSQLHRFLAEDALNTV
Description for in vitro: Cytotoxicity against mouse BaF3 assessed as inhibition of cell growth incubated for 3 days by CCK-8 assay

`Cc1cc(NC(=O)Nc2cc(C(C)(C)C)nn2-c2ccc(Cl)cc2)ccc1Nc1ncnc2c1OC(C)(C)C(=O)N2`: the half-life in data set [1] was 107 min. For the same molecule, the IC50 in the data set on BaF3 [2] was found to be 2 nM; with BaF3 [3], 7 nM; with BaF3 [8], 15 nM; with BaF3 [19], 1 nM; in [22], 126 nM. The inhibition entry in the data set on BaF3 [4], with BaF3 [5], with BaF3 [6], in the data set on BaF3 [7] and in the data set with BaF3 [10] was “Active” each time. The outcome with BaF3 [9], in the data set with BaF3 [12], in the data set on BaF3 [20] and in the data set on BaF3 [21] was Active. Besides, in [11], the area under the curve AUC(0-t) at 24 h came to 17900 ng·h/mL. Also, the Activity result in data set [13], in [15], in [16] and in [17] was “Non-Toxic” in each case. The same molecule had a clearance in data set [14] of 4.89 mL/min/kg. For the same molecule, the CL/F in data set [18] is 11.8 mL/min/kg. The molecule also gave an IC50 at 3 days in the data set “in vitro” of 9.53 µM. Further, the Ki in data set [23] is 2 nM.
